This note sets out measurements from ChEMBL document CHEMBL1124041, “Conformational and steric aspects of the inhibition of phenylethanolamine N-methyltransferase by benzylamines” (J Med Chem, 1988).

Molecules are shown by their SMILES.

A word on the Ki: it is a measure of affinity in units of concentration, obtained from inhibition or displacement.

Assay [1] deals with T1, Phenylethanolamine N-methyltransferase (Bos taurus, UniProt P10938).
T1 sequence (P10938 whole entry): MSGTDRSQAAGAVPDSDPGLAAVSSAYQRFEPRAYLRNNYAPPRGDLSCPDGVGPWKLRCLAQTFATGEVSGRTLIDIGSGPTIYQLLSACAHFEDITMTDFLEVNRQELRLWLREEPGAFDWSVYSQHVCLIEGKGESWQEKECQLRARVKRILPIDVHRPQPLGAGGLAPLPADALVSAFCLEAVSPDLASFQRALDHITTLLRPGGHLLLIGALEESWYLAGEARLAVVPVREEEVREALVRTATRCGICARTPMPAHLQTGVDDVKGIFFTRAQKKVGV
Put plainly: Inhibition of phenylethanolamine N-methyl-transferase (PNMT).

The target of assay [2] is T2, Phenylethanolamine N-methyltransferase (Bos taurus) (UniProt P10938).
T2 sequence (whole entry): T1 sequence (P10938 whole entry)
Put plainly: Acid dissociation constant of phenylethanolamine N-methyl-transferase (PNMT) inhibition.

Assay [3] deals with T2, Phenylethanolamine N-methyltransferase (Bos taurus). The experiment in a line: Molar pI50 value for phenylethanolamine N-methyl-transferase (PNMT) inhibition.

For `CC1Cc2ccccc2CN1` (configuration not stated), the Ki in assay [1] worked out at 3 µM.
Take `N[C@@H]1CC2CCC1c1ccccc12` (some centres not stated): in assay [1], the Ki is greater than 1000 µM.
In turn, `NCc1ccccc1` yielded a pKa in assay [2] of 9.38.
The same measure, in the same setting: for `NCc1cccc(Cl)c1Cl` the value was 7.35.
`NCc1cccc(F)c1` returned a pI50 in assay [3] of 4 M. In addition, in assay [2], the pKa was determined as 9.04.
The matching figures for `NCc1ccc(F)cc1`: 3.17 M and 9.3.
The matching figures for `Cc1cccc(CN)c1`: 3.82 M and 9.45.
The matching figures for `NCc1cccc(Cl)c1`: 5.07 M and 9.01.
In assay [1], `c1ccc2c(c1)C1CC[C@H]2N1` displayed a Ki greater than 2000 µM.
With `NCc1ccc(Cl)cc1`, the pI50 in assay [3] was 4.07 M. The molecule also registered a pKa in assay [2] of 9.14.
The matching figures for `Cc1ccc(CN)cc1`: 3.16 M and 9.54.
With `c1ccc2c(c1)C1CC[C@H]2NC1`, in assay [1], the Ki was greater than 2000 µM.
`COc1ccc(CN)cc1` yielded a pI50 in assay [3] of 2.78 M. The same molecule returned a pKa in assay [2] of 9.51.
The matching figures for `NCc1cccc(Br)c1`: 5.17 M and 8.98.
In turn, `c1ccc2c(c1)CC1CC[C@H]2N1` showed a Ki in assay [1] of 153 µM.
Same read-out and setting: under `NC1CC2C[C@@H]1c1ccccc12` (some centres not stated) stands 479 µM; under `c1cc2c3c(c1)CC[C@@H]3CCC2`, 52 µM.
The molecule `NCc1ccc(Br)cc1` showed a pI50 in assay [3] of 4.37 M. In addition, the pKa in assay [2] was determined as 9.13.
